# From patent publication US20140011799A1 (Bristol-Myers Squibb Company, priority 2012, published 2014)
# Where “and” joins values, the source holds several entries; their conditions need not be identical. Equal entries are not always repeated.
# Assays:
# hepatic lipase (HL) = biological target: T1, hepatic lipase (HL) (Homo sapiens, UniProt P11150); experiment: Hepatic lipase (HL) enzymatic assay, fluorescent substrate A10070 in DMPG vesicles; type: biochemical; conditions: HL partially purified from conditioned media of COS cells; compound preincubated 30 min at 37° C; read-out: HL IC50
# T1 construct: made in house; host or cells: COS cells (conditioned medium, partially purified)
# T1 sequence (P11150 23-499): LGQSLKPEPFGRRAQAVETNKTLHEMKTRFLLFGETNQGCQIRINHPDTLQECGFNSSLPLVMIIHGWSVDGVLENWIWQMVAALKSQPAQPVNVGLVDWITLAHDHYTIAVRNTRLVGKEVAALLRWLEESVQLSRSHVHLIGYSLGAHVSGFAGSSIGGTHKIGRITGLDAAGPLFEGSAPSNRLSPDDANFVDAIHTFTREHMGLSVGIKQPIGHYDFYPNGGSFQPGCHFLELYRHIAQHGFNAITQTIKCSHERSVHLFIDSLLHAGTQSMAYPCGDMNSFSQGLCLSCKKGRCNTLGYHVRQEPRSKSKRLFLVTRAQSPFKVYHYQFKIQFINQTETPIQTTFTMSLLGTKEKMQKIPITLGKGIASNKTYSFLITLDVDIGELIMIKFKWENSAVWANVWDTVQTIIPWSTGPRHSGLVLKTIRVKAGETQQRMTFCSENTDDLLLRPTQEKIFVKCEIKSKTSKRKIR
# Experimental: Endothelial lipase (EL) and hepatic lipase (HL) activities were measured using a fluorescent substrate, A10070, (Invitrogen, CA) doped into an artificial vesicle containing DMPG (Avanti Polar Lipids) as the excipient. Vesicles were prepared by combining 571 μL of 29 mM DMPG in a 1:1 mixture of MeOH and CHCl3 with 2000 μL of 1 mM A10070 in a 1:1 mixture of MeOH and CHCl3. The mixture was dried under nitrogen in multiple vials then resuspended in 20 mL total volume of 50 mM HEPES pH 8.0 buffer containing 50 mM NaCl and 0.2 mM EDTA. The sample was allowed to sit at room temperature for 15 min and then was sonicated 3×4 mins on ice with a Branson Sonicator using duty cycle 1. This preparation provides vesicles with a mole fraction of 0.11 for the FRET substrate.
# The enzymatic assay was measured using 384-well white Optiplates. Each well contained 20 μL of assay buffer (50 mM HEPES pH 8.0, 50 mM NaCl and 1 mM CaCl2) and 0.25 μL of a DMSO solution containing a compound of interest. EL or HL (10 μL) was added and allowed to incubate with the compound for 30 min at 37° C. The source of EL was conditioned media obtained from HT-1080 cells that were transformed using RAGE technology (Athersys) to overexpress endogenous EL, and HL was partially purified from conditioned media obtained from COS cells overexpressing HL. The reaction was started by the addition of 10 μL of a 1:10 dilution of vesicles. The final total reaction volume was […]. The reaction rates were measured on a Gemini plate reader with an excitation wavelength of 490 nm and an emission wavelength of 530 nm. Readings were taken over a period of 60 minutes, and the slope between 300 and 900 secs of the readout was used to calculate the rate of the reaction.
# Endothelial lipase (EL) = biological target: T2, Endothelial lipase (EL) (Homo sapiens, UniProt Q9Y5X9); experiment: Endothelial lipase (EL) enzymatic assay, fluorescent substrate A10070 in DMPG vesicles; type: biochemical; conditions: EL from conditioned media of HT-1080 cells; compound preincubated 30 min at 37° C; read-out: EL IC50
# T2 construct: HT-1080 cells that were transformed using RAGE technology (Athersys) to overexpress endogenous EL; endogenous in cells; conditioned medium used
# T2 sequence (Q9Y5X9 21-500): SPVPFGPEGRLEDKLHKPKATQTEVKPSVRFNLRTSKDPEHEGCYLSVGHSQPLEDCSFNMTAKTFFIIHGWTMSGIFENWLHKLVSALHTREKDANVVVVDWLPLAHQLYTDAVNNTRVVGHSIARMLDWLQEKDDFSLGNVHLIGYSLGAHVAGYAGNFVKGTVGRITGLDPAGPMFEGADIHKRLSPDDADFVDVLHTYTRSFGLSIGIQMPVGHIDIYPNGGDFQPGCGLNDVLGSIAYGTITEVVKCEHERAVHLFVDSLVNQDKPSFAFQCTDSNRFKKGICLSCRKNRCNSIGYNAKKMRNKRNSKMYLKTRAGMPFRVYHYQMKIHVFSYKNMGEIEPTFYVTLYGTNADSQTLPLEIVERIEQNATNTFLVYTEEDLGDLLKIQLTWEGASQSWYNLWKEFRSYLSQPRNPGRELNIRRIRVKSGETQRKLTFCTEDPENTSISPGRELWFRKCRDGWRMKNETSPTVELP
# How it was run: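 Vesicles prepared: A10070 dried with DMPG, resuspended in HEPES pH 8.0/NaCl/EDTA, sonicated on ice. Enzyme incubated with compound 30 min at 37° C. Reaction started with 1:10 diluted vesicles. Fluorescence (490/530 nm) followed 60 min; slope from 300–900 secs gives rate.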
Structure (SMILES),IC50 (hepatic lipase (HL)),IC50 (Endothelial lipase (EL)) [µM]
"NCCS(=O)(=O)C(c1nnc(CC2SC(=O)NC2=O)o1)c1nc2ccc(-c3ccccc3)cc2s1 (stereo not drawn) [Example 184, 5-((5-(((2-aminoethyl)sulfonyl)(6-phenyl-1,3-benzothiazol-2-yl)methyl)-1,3,4-oxadiazol-2-yl)methyl)-1,3-thiazolidine-2,4-dione]",< 0.01 µM,< 0.01
"Cc1noc(C)c1-c1ccc2nc(C(c3nnc(CNS(N)(=O)=O)o3)S(C)(=O)=O)sc2c1 (stereo not drawn) [Example 117, N-[(5-{[6-(3,5-dimethyl-1,2-oxazol-4-yl)-1,3-benzothiazol-2-yl](methylsulfonyl)methyl}-1,3,4-oxadiazol-2-yl)methyl] sulfuric diamide]",0.23 µM,0.024
"CS(=O)(=O)C(c1nnc(CC2SC(=O)NC2=O)o1)c1nc2ccc(Br)cc2s1 (stereo not drawn) [Example 100, 5-((5-((6-bromo-1,3-benzothiazol-2-yl)(methylsulfonyl)methyl)-1,3,4-oxadiazol-2-yl)methyl)-1,3-thiazolidine-2,4-dione]",0.291 µM,0.077
"CNC(=O)c1cccc(-c2ccc3nc(C(c4nnc(CC5(C)NC(=O)NC5=O)o4)S(C)(=O)=O)sc3c2)c1 (stereo not drawn) [Example 218, 3-{2-[methanesulfonyl({5-[(4-methyl-2,5-dioxoimidazolidin-4-yl)methyl]-1,3,4-oxadiazol-2-yl})methyl]-1,3-benzothiazol-6-yl}-N-methylbenzamide]",0.262 µM,0.01
"NS(=O)(=O)NCc1nnc(C(c2nc3ccc(-c4cncnc4)cc3s2)S(=O)(=O)Cc2ccccc2)o1 (stereo not drawn) [Example 125, N-((5-((benzylsulfonyl)(6-(5-pyrimidinyl)-1,3-benzothiazol-2-yl)methyl)-1,3,4-oxadiazol-2-yl)methyl) sulfamide]",0.103 µM,< 0.01
"CC1(CS(=O)(=O)C(c2nnc(CNS(N)(=O)=O)o2)c2nc3ccc(-c4ccc(C(=O)N5CCOCC5)cc4)cc3s2)COC1 (stereo not drawn) [Example 135, N-((5-((((3-methyl-3-oxetanyl)methyl)sulfonyl)(6-(4-(4-morpholinylcarbonyl)phenyl)-1,3-benzothiazol-2-yl)methyl)-1,3,4-oxadiazol-2-yl)methyl)sulfamide]",0.091 µM,< 0.01
"NS(=O)(=O)NCc1nnc(C(c2nc3ccc(-c4cc(Cl)cc(Cl)c4)cc3s2)S(=O)(=O)Cc2ccccc2)o1 (stereo not drawn) [Example 143, N-((5-((benzylsulfonyl)(6-(3,5-dichlorophenyl)-1,3-benzothiazol-2-yl)methyl)-1,3,4-oxadiazol-2-yl)methyl) sulfamide]",< 0.01 µM,< 0.01
"CS(=O)(=O)C(c1nnc(C[C@@H]2NS(=O)(=O)NC2=O)o1)c1nc2cc(F)c(-c3ccccc3)cc2s1 (stereo partly drawn) [Example 168, (4S)-4-((5-((5-fluoro-6-phenyl-1,3-benzothiazol-2-yl)(methylsulfonyl)methyl)-1,3,4-oxadiazol-2-yl)methyl)-1,2,5-thiadiazolidin-3-one 1,1-dioxide]",0.019 µM,< 0.01
"CS(=O)(=O)C(c1nnc(CNS(N)(=O)=O)o1)c1nc2ccc(-c3ccc(C(=O)N4CCOCC4)cc3)cc2s1 (stereo not drawn) [Example 130, N-((5-((methylsulfonyl)(6-(4-(4-morpholinylcarbonyl)phenyl)-1,3-benzothiazol-2-yl)methyl)-1,3,4-oxadiazol-2-yl)methyl)sulfamide]",0.022 µM,< 0.01
"CC(C)CN(C)C(=O)c1cccc(-c2ccc3nc(C(c4nnc(CC5(C)NC(=O)NC5=O)o4)S(C)(=O)=O)sc3c2)c1 (stereo not drawn) [Example 226, 3-{2-[methanesulfonyl({5-[(4-methyl-2,5-dioxo-imidazolidin-4-yl)methyl]-1,3,4-oxadiazol-2-yl})methyl]-1,3-benzothiazol-6-yl}-N-methyl-N-(2-methylpropyl)benzamide]",0.053 µM,0.035
"CN(C)C(=O)c1ccc(-c2ccc3nc(C(c4nnc(CNS(=O)(=O)NC(=O)OC(C)(C)C)o4)S(=O)(=O)Cc4ccccc4)sc3c2)cc1Cl (stereo not drawn) [Example 141, tert-butyl (((5-((benzylsulfonyl)(6-(3-chloro-4-(dimethylcarbamoyl)phenyl)-1,3-benzothiazol-2-yl)methyl)-1,3,4-oxadiazol-2-yl)methyl)sulfamoyl) carbamate]",0.05 µM,< 0.01
"CS(=O)(=O)C(c1nnc(CC2SC(=O)NC2=O)o1)c1nc2ccc(-c3ccnc(C#N)c3)cc2s1 (stereo not drawn) [Example 103, 4-(2-((5-((2,4-dioxo-1,3-thiazolidin-5-yl)methyl)-1,3,4-oxadiazol-2-yl)(methylsulfonyl)methyl)-1,3-benzothiazol-6-yl)-2-pyridinecarbonitrile]",< 0.01 µM and 0.036 µM,< 0.01

# The remaining lines, values ahead:
IC50 (hepatic lipase (HL)),IC50 (Endothelial lipase (EL)) [µM],Structure (SMILES)
0.021 µM,< 0.01,"Cn1cc(-c2cc3sc(C(c4nnc(CNS(N)(=O)=O)o4)S(=O)(=O)Cc4ccccc4)nc3cc2F)cn1 (stereo not drawn) [Example 158, N-((5-((benzylsulfonyl)(5-fluoro-6-(1-methyl-1H-pyrazol-4-yl)-1,3-benzothiazol-2-yl)methyl)-1,3,4-oxadiazol-2-yl)methyl) sulfamide]"
0.07 µM,< 0.01,"NCCS(=O)(=O)C(c1nnc(CC2SC(=O)NC2=O)o1)c1nc2ccc(-c3ccc(C(=O)N4CCOCC4)cc3)cc2s1 (stereo not drawn) [Example 185, 5-{[5-([(2-aminoethyl)sulfonyl]{6-[4-(4-morpholinylcarbonyl)phenyl]-1,3-benzothiazol-2-yl}methyl)-1,3,4-oxadiazol-2-yl]methyl}-1,3-thiazolidine-2,4-dione]"
0.22 µM,< 0.01,"CS(=O)(=O)C(c1nnc(CNS(N)(=O)=O)o1)c1nc2ccc(Br)cc2s1 (stereo not drawn) [Example 114, N-((5-((6-bromo-1,3-benzothiazol-2-yl)(methylsulfonyl)methyl)-1,3,4-oxadiazol-2-yl)methyl) sulfamide]"
1.34 µM,< 0.01,"O=C1NC(=O)C(Cc2nnc(C(c3nc4ccc(-c5ccc(C(=O)N6CCOCC6)cc5)cc4s3)S(=O)(=O)CCN3CCOCC3)o2)S1 (stereo not drawn) [Example 106, 5-((5-((6-(4-(4-morpholinylcarbonyl)phenyl)-1,3-benzothiazol-2-yl)((2-(4-morpholinyl)ethyl)sulfonyl)methyl)-1,3,4-oxadiazol-2-yl)methyl)-1,3-thiazolidine-2,4-dione]"
0.119 µM,0.005,"CS(=O)(=O)C(c1nnc(CNS(N)(=O)=O)o1)c1nc2cc(-c3ccc(C(=O)N4CCOCC4)cc3)ccc2s1 (stereo not drawn) [Example 243, N-({5-[methanesulfonyl({5-[4-(morpholine-4-carbonyl)phenyl]-1,3-benzothiazol-2-yl})methyl]-1,3,4-oxadiazol-2-yl}methyl)aminosulfonamide]"
0.016 µM,0.002,"CS(=O)(=O)C(c1nnc(CNS(N)(=O)=O)o1)c1nc2ccc(-c3cccc(C(=O)Nc4nncs4)c3)cc2s1 (stereo not drawn) [Example 256, 3-{2-[methanesulfonyl({5-[(sulfamoylamino)methyl]-1,3,4-oxadiazol-2-yl})methyl]-1,3-benzothiazol-6-yl}-N-(1,3,4-thiadiazol-2-yl)benzamide]"
